Assay results reported in PMC12935787, “Clinical pharmacokinetics and pharmacometabolomics of Andrographis paniculata capsules: Bridging drug disposition and metabolic response to precision medicine” (Naunyn-Schmiedeberg's Archives of Pharmacology, 2025).
Read-outs that look alike come from different tables or passages of the source.

Experiment: Clinical pharmacokinetics, plasma LC-MS/MS after single oral dose of AP capsules
Type: in vivo, human (healthy volunteers)
Details: human, plasma; for concentration at 0 h / concentration at 0.5 h / concentration at 1 h / concentration at 1.5 h / concentration at 2 h / concentration at 2.5 h / concentration at 3 h / concentration at 3.5 h / concentration at 4 h / concentration at 5 h / concentration at 6 h / concentration at 8 h / concentration at 10 h / concentration at 12 h / concentration at 24 h: oral, 2000 mg, 2000 mg AP capsules; for concentration at 0.5 h: 0.50 h; for concentration at 1.5 h: 1.50 h; for concentration at 2.5 h: 2.50 h; for concentration at 3.5 h: 3.50 h
Method: The protocol was published (Tee et al. [2022]).
Seven calibrators ranging from 1, 2, 5,10, 20, 50, and 100 ng mL^−1 were prepared. Frozen plasma was thawed, vortexed-mixes, and processed via protein precipitation: 50 µL plasma plus 100 µL 0.01% ammonia in methanol were vortexed (20 s), centrifuged (14800 rpm, 5 min) and […] supernatant was transferred to 2 mL vials with inserts. LC–MS/MS injection volume: 10 µL. The separation used a Phenomenex Gemini-NX C18 column (150 × 2.1 mm, 5 μm) with 0.01% ammonia (A) and acetonitrile/methanol (1:1, B) as mobile phases (0.30 mL min^-1). The gradient program: 40% B (0 min), linear increase to 95% B (3 min), hold to 5 min, sharp decrease to 10% B (5.01 min), hold to 7 min, return to 40% B (7.01 min), and re-equilibration to 10 min. Mass detection employed an LCMS-8060NX triple quadrupole with heated ESI in negative mode, monitoring specific MRM transitions: andrographolide (349.3 → 331.2/287.1), 14-deoxyandrographolide (331.2 → 108.0/301.1), and neoandrographolide (479.1 → 317.4/161.1).
Pharmacokinetic parameters were determined from plasma samples (5 subjects, 15 time points) analyzed via LC–MS/MS (Shimadzu 8060NX). […] Specific MRM transitions for andrographolide, 14-deoxyandrographolide, and neoandrographolide in plasma samples of subjects are illustrated in Figure S3. […] The dose-dependent concentration–time curves, pharmacokinetics profiles (Fig. 2a, b and c) and comprehensive individual PK data (Table S4) provide a foundation for developing personalized AP dosing regimens, supporting its precision medicine potential.

[1] = S1, read-out: Plasma concentration
[2] = S2, read-out: Plasma concentration
[3] = S3, read-out: Plasma concentration
[4] = S4, read-out: Plasma concentration
[5] = S5, read-out: Plasma concentration
[6] = mean n=5, read-out: Mean concentration
[7] = 2000 mg AP capsules oral, fasting, n=5

For `C=C1CC[C@@H]2[C@](C)(CO)[C@H](O)CC[C@@]2(C)[C@@H]1CCC1=CCOC1=O` [14-deoxyandrographolide], the concentration at 0 h [1] was 0 ng/mL, the concentration at 0.5 h [1] was 4.67 ng/mL and the concentration at 1 h [1] was 2.88 ng/mL. For the same compound, the concentration at 1.5 h [1] was 7.71 ng/mL, the concentration at 2 h [1] was 5.18 ng/mL and the concentration at 2.5 h [1] was 3.32 ng/mL. For the same compound, the concentration at 3 h [1] was 6.06 ng/mL, the concentration at 3.5 h [1] was 3.78 ng/mL and the concentration at 4 h [1] was 0 ng/mL. It also gave a concentration at 5 h [1] of 0 ng/mL, a concentration at 6 h [1] of 0 ng/mL and a concentration at 8 h [1] of 0 ng/mL. It also gave a concentration at 10 h [1] of 0 ng/mL, a concentration at 12 h [1] of 0 ng/mL and a concentration at 24 h [1] of 0 ng/mL. It also gave a concentration at 0 h [2] of 0 ng/mL, a concentration at 0.5 h [2] of 0 ng/mL and a concentration at 1 h [2] of 4.36 ng/mL. It also gave a concentration at 1.5 h [2] of 4.51 ng/mL, a concentration at 2 h [2] of 3.4 ng/mL and a concentration at 2.5 h [2] of 2.73 ng/mL. For the same compound, the concentration at 3 h [2] was 4.33 ng/mL, the concentration at 3.5 h [2] was 0 ng/mL and the concentration at 4 h [2] was 0 ng/mL. It also gave a concentration at 5 h [2] of 0 ng/mL, a concentration at 6 h [2] of 0 ng/mL and a concentration at 8 h [2] of 0 ng/mL. It also gave a concentration at 10 h [2] of 0 ng/mL, a concentration at 12 h [2] of 0 ng/mL and a concentration at 24 h [2] of 0 ng/mL. It also gave a concentration at 0 h [3] of 0 ng/mL, a concentration at 0.5 h [3] of 23.4 ng/mL and a concentration at 1 h [3] of 10.1 ng/mL. It also gave a concentration at 1.5 h [3] of 6.33 ng/mL, a concentration at 2 h [3] of 3.06 ng/mL and a concentration at 2.5 h [3] of 2.52 ng/mL. For the same compound, the concentration at 3 h [3] was 1.77 ng/mL, the concentration at 3.5 h [3] was 0 ng/mL and the concentration at 4 h [3] was 0 ng/mL. The concentration at 5 h [3] was 2.59 ng/mL, the concentration at 6 h [3] was 0 ng/mL and the concentration at 8 h [3] was 0 ng/mL. For the same compound, the concentration at 10 h [3] was 0 ng/mL, the concentration at 12 h [3] was 0 ng/mL and the concentration at 24 h [3] was 0 ng/mL. For the same compound, the concentration at 0 h [4] was 0 ng/mL, the concentration at 0.5 h [4] was 1.49 ng/mL and the concentration at 1 h [4] was 10 ng/mL. It also gave a concentration at 1.5 h [4] of 13.2 ng/mL, a concentration at 2 h [4] of 4.7 ng/mL and a concentration at 2.5 h [4] of 5.46 ng/mL. It also gave a concentration at 3 h [4] of 1.92 ng/mL, a concentration at 3.5 h [4] of 2.29 ng/mL and a concentration at 4 h [4] of 1.69 ng/mL. It also gave a concentration at 5 h [4] of 1.8 ng/mL, a concentration at 6 h [4] of 2.01 ng/mL and a concentration at 8 h [4] of 2.47 ng/mL. For the same compound, the concentration at 10 h [4] was 0 ng/mL, the concentration at 12 h [4] was 0 ng/mL and the concentration at 24 h [4] was 0 ng/mL. The concentration at 0 h [5] was 0 ng/mL, the concentration at 0.5 h [5] was 3.04 ng/mL and the concentration at 1 h [5] was 2.29 ng/mL. The concentration at 1.5 h [5] was 3.39 ng/mL, the concentration at 2 h [5] was 4.99 ng/mL and the concentration at 2.5 h [5] was 3.66 ng/mL. It also gave a concentration at 3 h [5] of 3.28 ng/mL, a concentration at 3.5 h [5] of 2.09 ng/mL and a concentration at 4 h [5] of 1.36 ng/mL. For the same compound, the concentration at 5 h [5] was 2.4 ng/mL, the concentration at 6 h [5] was 1.7 ng/mL and the concentration at 8 h [5] was 0 ng/mL. It also gave a concentration at 10 h [5] of 0 ng/mL, a concentration at 12 h [5] of 0 ng/mL and a concentration at 24 h [5] of 0 ng/mL. For the same compound, the concentration at 0 h [6] was 0 ng/mL, the concentration at 0.5 h [6] was 6.52 ng/mL and the concentration at 1 h [6] was 5.94 ng/mL. For the same compound, the concentration at 1.5 h [6] was 7.02 ng/mL, the concentration at 2 h [6] was 4.27 ng/mL and the concentration at 2.5 h [6] was 3.54 ng/mL. The concentration at 3 h [6] was 3.47 ng/mL, the concentration at 3.5 h [6] was 1.63 ng/mL and the concentration at 4 h [6] was 0.61 ng/mL. It also gave a concentration at 5 h [6] of 1.36 ng/mL, a concentration at 6 h [6] of 0.74 ng/mL and a concentration at 8 h [6] of 0.49 ng/mL. It also gave a concentration at 10 h [6] of 0 ng/mL, a concentration at 12 h [6] of 0 ng/mL and a concentration at 24 h [6] of 0 ng/mL. The AUC(0-inf) [7] was 21.2 ng·h/mL, the AUC(0-t) [7] was 19.6 ng·h/mL and the Cmax [7] was 7.02 ng/mL. For the same compound, the half-life [7] was 2.18 h.
